Reference: publication PMC9501377, “New Diarylamine KV10.1 Inhibitors and Their Anticancer Potential” (Pharmaceutics, 2022)

How the values were obtained:
KV10.1 = biological target: T1, KV10.1 (Homo sapiens, UniProt O95259); test: Two-electrode voltage-clamp on Xenopus laevis oocytes expressing KV10.1; format: cell-based; details: voltage-clamped
T1 construct: expressed in transfected cells; host or cells: Xenopus laevis oocytes (cRNA injection)
T1 sequence (O95259 1-989): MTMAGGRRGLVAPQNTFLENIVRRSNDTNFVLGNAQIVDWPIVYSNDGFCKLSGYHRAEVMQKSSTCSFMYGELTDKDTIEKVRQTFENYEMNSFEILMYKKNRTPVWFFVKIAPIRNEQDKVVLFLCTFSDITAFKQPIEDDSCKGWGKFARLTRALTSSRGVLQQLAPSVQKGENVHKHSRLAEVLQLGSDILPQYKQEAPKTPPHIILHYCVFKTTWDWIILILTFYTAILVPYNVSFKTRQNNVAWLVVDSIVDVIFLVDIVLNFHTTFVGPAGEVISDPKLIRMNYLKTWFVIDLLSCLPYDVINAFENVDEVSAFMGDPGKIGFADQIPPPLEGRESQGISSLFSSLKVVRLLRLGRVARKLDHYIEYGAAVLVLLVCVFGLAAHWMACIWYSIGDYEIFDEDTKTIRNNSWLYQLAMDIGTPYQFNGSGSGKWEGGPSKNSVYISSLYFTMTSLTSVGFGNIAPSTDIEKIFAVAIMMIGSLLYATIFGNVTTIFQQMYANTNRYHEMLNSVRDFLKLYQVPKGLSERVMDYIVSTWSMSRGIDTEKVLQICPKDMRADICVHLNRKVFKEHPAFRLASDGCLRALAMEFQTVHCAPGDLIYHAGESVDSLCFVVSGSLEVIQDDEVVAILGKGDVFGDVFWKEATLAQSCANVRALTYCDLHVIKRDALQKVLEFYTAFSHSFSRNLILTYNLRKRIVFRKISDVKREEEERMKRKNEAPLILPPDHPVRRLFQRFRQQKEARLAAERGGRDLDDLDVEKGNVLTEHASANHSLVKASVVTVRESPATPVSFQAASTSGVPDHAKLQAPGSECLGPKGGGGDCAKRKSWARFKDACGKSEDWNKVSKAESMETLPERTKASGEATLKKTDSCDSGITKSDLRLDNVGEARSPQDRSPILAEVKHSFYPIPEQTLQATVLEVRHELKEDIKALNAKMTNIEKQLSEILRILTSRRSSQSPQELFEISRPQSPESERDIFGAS
Source text: (§1) Stage V–VI oocytes were isolated by partial ovariectomy from Xenopus laevis frogs (African clawed frog). Mature female frogs were purchased from CRB Xénopes (Rennes, France) and were housed in the Aquatic Facility (KU Leuven) in compliance with the regulations of the European Union (EU) concerning the welfare of laboratory animals as declared in Directive 2010/63/EU. The use of Xenopus laevis was approved by the Animal Ethics Committee of the KU Leuven (Project nr. P186/2019). After anesthetising the frogs by a 15 min submersion in 0.1% tricaine methanesulphonate (pH 7.0), the oocytes were collected. The isolated oocytes were then washed with a 1.5 mg/mL collagenase solution for 2 h to remove the follicle layer.
(§2) Ion channels (KV10.1 and hERG) were expressed in Xenopus laevis oocytes, by linearisation of the plasmids and subsequent in vitro transcription using a commercial T7 or SP6 mMESSAGE mMACHINE transcription kit (Ambion, Carlsbad, CA, USA). Defolliculated Xenopus oocytes were then injected with 20–50 nL of the cRNA at a concentration of 1 ng/nL using a micro-injector (Drummond Scientific1, Broomall, PA, USA). The oocytes were incubated in a solution containing (in mM): NaCl, 96; KCl, 2; CaCl2, 1.8; MgCl2, 2 and HEPES, 5 (pH 7.4), supplemented with 50 mg/L gentamycin sulphate and […]. After ex vivo translation, the ion channels are correctly inserted in the cell membrane of the oocytes.
(§3) Two-electrode voltage-clamp recordings were performed at room temperature (18–22 °C) using a Geneclamp 500 amplifier (Molecular Devices, San Jose, CA, USA) controlled by a pClamp data acquisition system (Axon Instruments1, Union City, CA, USA) and using an integrated digital TEVC amplifier controlled by HiClamp, an automated Voltage-Clamp Screening System (Multi Channel Systems MCS GmbH, Reutlingen, Germany). Whole-cell currents from oocytes were recorded 1–7 days after injection. The bath solution composition was ND96 (in mM): NaCl, 96; KCl, 2; CaCl2, 1.8; MgCl2, 2 and HEPES, 5 (pH 7.5). Voltage and current electrodes were filled with a 3 M solution of KCl in H2O. Resistances of both electrodes were kept between 0.5 and 1.5 MΩ. The elicited Kv10.1 and hERG currents were filtered at 0.5 kHz and sampled at 2 kHz using a four-pole low-pass Bessel filter. Leak subtraction was performed using a p/4 protocol. Starting from a holding potential of −90 mV, currents for Kv10.1 were evoked by 1 s depolarizing pulses to 0 mV and currents for hERG were evoked by 2.5 s depolarizing prepulses to +40 mV, followed by hyperpolarizing pulses to −120 mV for 2.5 s. The concentration dependency of all compounds was assessed by measuring the current inhibition in the presence of increasing compound concentrations. To this end, a stock solution of the compounds was prepared in 100% DMSO for the sake of solubility. From this stock solution, adequate dilutions with a maximum of 0.5% DMSO were made for testing. The data of the concentration–response curves were fitted with the Hill equation: y = 100/{1 + (IC50/[compound])^h}, where y is the amplitude of the compound- induced effect, IC50 is the compound concentration at half-maximal efficacy, (compound) is the compound concentration, and h is the Hill coefficient.
(§4) All electrophysiological data are presented as means ± SEM of n ≥ 3 independent experiments unless otherwise indicated. Oocyte data were analysed using pClamp Clampfit 10.4 (Molecular Devices, Downingtown, PA, USA) and OriginPro 9 (Originlab, Northampton, MA, USA) or GraphPad Prism 8 software (GraphPad Software, Inc., San Diego, CA, USA). Patch-clamp data analysis was performed using FitMaster (HEKA Electronics), IgorPro (Wavemetrics, Inc., Lake Oswego, OR, USA) and GraphPad Prism 9 (GraphPad Software, Inc., San Diego, CA, USA). The Dunnett test and one-way ANOVA were performed to calculate the significance of the induced inhibition compared to the control (p < 0.05).

hERG = hERG (Homo sapiens, UniProt Q12809); test: Two-electrode voltage-clamp on Xenopus laevis oocytes expressing hERG; format: cell-based; design: expressed in transfected cells; host or cells: Xenopus laevis oocytes (cRNA injection); details: voltage-clamped; for inhibition at 10 µM: human, Xenopus laevis oocytes expressing hERG, pH 7.5, 10 μM
hERG, sequence (Q12809 whole entry): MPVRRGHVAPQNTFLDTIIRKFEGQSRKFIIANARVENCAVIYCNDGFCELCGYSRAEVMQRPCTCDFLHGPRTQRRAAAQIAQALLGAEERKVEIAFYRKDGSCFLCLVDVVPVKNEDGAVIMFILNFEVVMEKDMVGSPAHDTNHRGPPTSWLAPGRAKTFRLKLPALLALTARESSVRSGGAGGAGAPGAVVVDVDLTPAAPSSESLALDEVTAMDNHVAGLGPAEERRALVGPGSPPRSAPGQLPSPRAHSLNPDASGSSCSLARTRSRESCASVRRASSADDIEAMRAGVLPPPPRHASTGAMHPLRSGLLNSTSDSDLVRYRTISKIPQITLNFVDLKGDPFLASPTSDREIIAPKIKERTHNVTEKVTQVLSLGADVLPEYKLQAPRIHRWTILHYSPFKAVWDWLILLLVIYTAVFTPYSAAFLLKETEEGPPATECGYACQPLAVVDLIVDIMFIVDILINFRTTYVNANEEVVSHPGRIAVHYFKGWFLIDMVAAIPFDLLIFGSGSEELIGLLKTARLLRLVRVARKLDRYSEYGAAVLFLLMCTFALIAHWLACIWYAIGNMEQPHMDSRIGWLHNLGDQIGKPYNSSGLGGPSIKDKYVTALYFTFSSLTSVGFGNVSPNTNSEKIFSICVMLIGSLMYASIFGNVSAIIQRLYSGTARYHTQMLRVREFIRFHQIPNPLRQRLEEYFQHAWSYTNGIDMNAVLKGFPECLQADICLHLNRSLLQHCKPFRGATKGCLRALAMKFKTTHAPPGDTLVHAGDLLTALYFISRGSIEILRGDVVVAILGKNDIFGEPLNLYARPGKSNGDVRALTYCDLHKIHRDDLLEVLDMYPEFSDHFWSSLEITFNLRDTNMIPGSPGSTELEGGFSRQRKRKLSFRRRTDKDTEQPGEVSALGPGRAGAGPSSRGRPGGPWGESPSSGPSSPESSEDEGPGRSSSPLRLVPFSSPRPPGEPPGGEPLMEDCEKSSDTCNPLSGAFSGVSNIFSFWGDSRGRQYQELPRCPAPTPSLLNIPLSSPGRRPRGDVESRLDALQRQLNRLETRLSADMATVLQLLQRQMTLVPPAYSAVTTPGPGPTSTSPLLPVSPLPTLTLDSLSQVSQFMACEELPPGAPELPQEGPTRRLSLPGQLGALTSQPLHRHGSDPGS
Source text: as §1, §2, §3, §4

inhibition at 10 µM (KV10.1; 10 μM) [%]	% of Kv10.1 inhibition at 10 μM (Xenopus laevis oocytes) (KV10.1; 10 μM)	IC50 (KV10.1) [µM]	Compound	inhibition at 10 µM (hERG) [%]	% of hERG inhibition at 10 μM (Xenopus laevis oocytes) (hERG; 10 μM)	IC50 (hERG) [µM]
19.5			CCN(CC)CCOc1c(Br)cc(Nc2ccc(C(F)(F)F)cc2[N+](=O)[O-])cc1Br [Compound 17b, 3,5-Dibromo-4-(2-(diethylamino)ethoxy)-N-(2-nitro-4-(trifluoromethyl)phenyl)aniline]	60.1		
24.9			O=[N+]([O-])c1cc(C(F)(F)F)ccc1Oc1ccc(OCC(O)CN2CCOCC2)cc1 (stereo not shown) [Compound 5b, 1-Morpholino-3-(4-(2-nitro-4-(trifluoromethyl)phenoxy)phenoxy)propan-2-ol]	11.5		
-4.54			COC(=O)c1ccccc1Oc1ccc(OCC(O)CN2CCOCC2)cc1 (stereo not shown) [Compound 5a, Methyl 2-(4-(2-hydroxy-3-morpholinopropoxy)phenoxy)benzoate]	15		
9.91			COC(=O)c1cc(C(F)(F)F)ccc1Nc1ccc(OCC(O)CN(C)C)cc1 (stereo not shown) [Compound 6c, Methyl 2-((4-(3-(dimethylamino)-2-hydroxypropoxy)phenyl)amino)-5-(trifluoromethyl)benzoate]	63.7		
-2.11			COC(=O)c1ccccc1Nc1ccc(OCC(O)CN2CCOCC2)cc1 (stereo not shown) [Compound 5d, Methyl 2-((4-(2-hydroxy-3-morpholinopropoxy)phenyl)amino)benzoate]	20.4		
-0.41			CN(C)CC(O)COc1ccc(NC(=O)c2ccc(C(F)(F)F)cc2[N+](=O)[O-])cc1 (stereo not shown) [Compound 6b, N-(4-(3-(Dimethylamino)-2-hydroxypropoxy)phenyl)-2-nitro-4-(trifluoromethyl)benzamide]	9.83		
23.7			CN(C)CC(O)COc1ccc(Oc2ccc(C(F)(F)F)cc2[N+](=O)[O-])cc1 (stereo not shown) [Compound 6a, 1-(Dimethylamino)-3-(4-(2-nitro-4-(trifluoromethyl)phenoxy)phenoxy)propan-2-ol]	69.1		
15.7			CN(C)CC(O)COc1ccc(Nc2ccc(C(F)(F)F)cc2C(=O)O)cc1 (stereo not shown) [Compound 10b, 2-((4-(3-(Dimethylamino)-2-hydroxypropoxy)phenyl)amino)-5-(trifluoromethyl)benzoic acid]	14.7		
9.21			CCN(CC)CCOc1c(Cl)cc(Nc2ccc(C(F)(F)F)cc2[N+](=O)[O-])cc1Cl [Compound 17c, 3,5-Dichloro-4-(2-(diethylamino)ethoxy)-N-(2-nitro-4-(trifluoromethyl)phenyl)aniline]	54.7		
13			O=C(O)c1ccccc1Nc1ccc(OCC(O)CN2CCOCC2)cc1 (stereo not shown) [Compound 10a, 2-((4-(2-Hydroxy-3-morpholinopropoxy)phenyl)amino)benzoic acid]	3.42		
	-2.17% ± 3.06		Methyl 2-((4-(2-hydroxy-3-morpholinopropoxy)phenyl)amino)benzoate [Compound 5e]		37.32% ± 13.11	
58.2		19 ± 2.85	CN(C)CCOc1c(Cl)cc(Nc2ccc(C(F)(F)F)cc2[N+](=O)[O-])cc1Cl [Compound 18c, 3,5-Dichloro-4-(2-(dimethylamino)ethoxy)-N-(2-nitro-4-(trifluoromethyl)phenyl)aniline]	76.8		0.66 ± 0.27
-0.66			O=C(Nc1ccc(OCC(O)CN2CCOCC2)cc1)c1ccc(C(F)(F)F)cc1[N+](=O)[O-] (stereo not shown) [Compound 5c, N-(4-(2-Hydroxy-3-morpholinopropoxy)phenyl)-2-nitro-4-(trifluoromethyl)benzamide]	21.5		
22.6			O=[N+]([O-])c1cc(C(F)(F)F)ccc1Nc1ccc(OCCN2CCOCC2)cc1 [Compound 13, N-(4-(2-Morpholinoethoxy)phenyl)-2-nitro-4-(trifluoromethyl)aniline]	34.7		
39.9			CNCC(O)COc1ccc(Nc2ccc(C(F)(F)F)cc2[N+](=O)[O-])cc1 (stereo not shown) [Compound 15, 1-(Methylamino)-3-(4-((2-nitro-4-(trifluoromethyl)phenyl)amino)phenoxy)propan-2-ol]	58.6		
36.3		12.93 ± 0.04	O=[N+]([O-])c1cc(C(F)(F)F)ccc1Nc1ccc(OCCN2CCCCC2)cc1 [Compound 20, 2-Nitro-N-(4-(2-(piperidin-1-yl)ethoxy)phenyl)-4-(trifluoromethyl)aniline]	75.6		0.59 ± 0.01
0			O=C(Cc1ccc(Cl)c(Cl)c1)NC1CCN(CC(O)COc2ccc(Nc3ccc(C(F)(F)F)cc3[N+](=O)[O-])cc2)CC1 (stereo not shown) [Compound 16d, 2-(3,4-Dichlorophenyl)-N-(1-(2-hydroxy-3-(4-((2-nitro-4-(trifluoromethyl)phenyl)amino)phenoxy)propyl)piperidin-4-yl)acetamide]			
55.7			O=[N+]([O-])c1cc(C(F)(F)F)ccc1Nc1ccc(OCCN2CCCC2)cc1 [Compound 19, 2-Nitro-N-(4-(2-(pyrrolidin-1-yl)ethoxy)phenyl)-4-(trifluoromethyl)aniline]	65.9		

Compound	inhibition at 10 µM (KV10.1; 10 μM) [%]	% of Kv10.1 inhibition at 10 μM (Xenopus laevis oocytes) (KV10.1; 10 μM)	IC50 (KV10.1) [µM]	inhibition at 10 µM (hERG) [%]	% of hERG inhibition at 10 μM (Xenopus laevis oocytes) (hERG; 10 μM)	IC50 (hERG) [µM]
O=[N+]([O-])c1ccc(Nc2ccc(OCC(O)CN3CCOCC3)cc2)c([N+](=O)[O-])c1 (stereo not shown) [Compound 5f, 1-(4-((2,4-Dinitrophenyl)amino)phenoxy)-3-morpholinopropan-2-ol]	41.3			65.8		
CN(C)CC(O)COc1ccc(Nc2ccc([N+](=O)[O-])cc2[N+](=O)[O-])cc1 (stereo not shown) [Compound 6d, 1-(Dimethylamino)-3-(4-((2,4-dinitrophenyl)amino)phenoxy)propan-2-ol]	44.1			74.3		
